We go through two compounds from PMC7509924, “Neuroprotective effect of Angelica gigas root in a mouse model of ischemic brain injury through MAPK signaling pathway regulation” (Chinese Medicine, 2020).

Series [1] can be described thus: Pharmacokinetics of decursin in plasma after oral administration of RAGE. It is filed as in vivo, SD rats. As to the method:
Quantification of decursin was performed using an Accela LC system (Thermo Fisher Scientific; MA, USA) equipped with an autosampler, degasser, and quaternary solvent pump. Decursin and IS were separated on a Hypersil GOLD C18 column (2.1 mm × 100 mm, 1.9 μm; Thermo Fisher Scientific, MA, USA) at 35℃. The flow rate was set at 300 μL/min with an injection volume of 5 μL. The mobile phase consisted of water (containing 0.1% formic acid, A) and acetonitrile (B) and the gradient elution applied was as follows: 30–60% (B) for 0–4 min, 60% (B) for 0.5 min, and then re-equilibrated to 30% (B) until the end of the analysis. An LCQ Fleet ion-trap mass spectrometer (Thermo Fisher Scientific; MA, USA) was used to detect compounds in the eluent using the electrospray ionization source in the positive-ion mode. MS conditions were as follows: sheath gas (nitrogen), 50 arbitrary units; auxiliary gas (nitrogen), 20 arbitrary units; spray voltage, 5.0 kV; capillary temperature, 300℃; and capillary voltage, 30.0 V. Quantification of the compound was performed in the selective ion monitoring mode at 329 m/z [M+H]^+ for decursin and 415 m/z [M+H]^+ for the IS. Data was processed using Excalibur (v. 2.1.0; Thermo Fisher Scientific, CA, USA). Accurately weighed decursin and IS were dissolved in methanol at a concentration of 100 μg/mL, and the solution was diluted with methanol to prepare working solutions for the construction of the calibration curve. Calibration standards were prepared using 150 μL of blank rat plasma spiked with 10 μL of working solutions and 10 μL of IS solution, which was extracted using ethyl acetate. Plasma samples were prepared using a liquid–liquid extraction method. An aliquot of 150 μL plasma sample was spiked with 10 μL of IS solution and 10 μL of methanol, and 800 μL of ethyl acetate was added. Extraction of decursin and IS was performed by vortex mixing for 2 min at 25℃, followed by centrifugation at 704 × g for 10 min at 20℃. The upper layer (ethyl acetate) was then transferred to a clean 1.5 mL polypropylene tube and evaporated using a nitrogen gas blowing concentrator (MGS–2200; EYELA, Miyagi, Japan). The residue obtained after evaporation was reconstituted in 100 μL of methanol, vortex mixed for 2 min, and centrifuged at 704 × g for 10 min at 20℃. The supernatant was transferred to a glass vial and a 5 μL aliquot was injected into the UPLC–MS/MS system. […] Blood samples ([…]) were collected from a jugular vein in heparinized tubes before the administration, and 0.17, 0.5, 1, 2, 4, 6, 8, 12, 24, or 48 h after intragastric administration. Collected blood samples were immediately centrifuged at 704 × g for 10 min, and 150 μL aliquots of supernatant plasma were transferred to clean tubes and stored at -20 °C until analysis. The pharmacokinetic parameters of decursin were calculated using plasma concentration of decursin versus time data using PKSolver (a free add-in program for Microsoft Excel).

Series [2] deals with ERK and p38 in colon carcinoma cells. Also on record: method as in PMID 21170925. The settings on record: cited from earlier work.
The mark [3] stands for this setting: oral RAGE 100 mg/rat, mean ± SD, n = 6.

Compound `CC(C)=CC(=O)O[C@H]1Cc2cc3ccc(=O)oc3cc2OC1(C)C` [decursin] had a half-life in series [1] (SD, rat, after oral administration of RAGE, as restated in the discussion) of 8.28 h. This compound returned an AUC(0-t) in series [1] (oral RAGE 100 mg/rat, 0 to 48 h, mean ± SD, n = 6) of 1190 ± 324 ng·h/mL. In addition, the MRT last in series [1] (oral RAGE 100 mg/rat, 0 to 48 h, mean ± SD, n = 6, read-out: MRT0-t) came out at 5.43 ± 0.581 h. The concentration at 48 h in series [1] (oral RAGE 100 mg/rat, last measured concentration, mean ± SD, n = 6, read-out: Clast) is 2.62 ± 0.665 ng/mL. Moreover, in series [1] (setting [3]), the AUC(0-inf) stood at 1220 ± 326 ng·h/mL, the highest level (Cmax) was 408 ± 85.7 ng/mL, the time of peak concentration (Tmax) was determined as 1.75 ± 1.25 h and the half-life was 8.28 ± 0.538 h. In series [1] (oral RAGE 100 mg/rat, mean ± SD, n = 6, read-out: MRT0-∞), the MRT inf is 6.9 ± 0.954 h. The “activities of ERK and p38” value in series [2] was “inhibited”.

As for `CC1(C)Oc2cc3oc(=O)ccc3cc2C[C@@H]1O` [decursinol], the “activities of ERK and p38” value in series [2] was “inhibited”.
